Measurements as given in ChEMBL document CHEMBL5360649, “Potential Broad-Spectrum Antimicrobial, Wound Healing, and Disinfectant Cationic Peptide Crafted from Snake Venom” (J Med Chem, 2023).
Each block holds one compound with its values, some of them ahead of it. Activity calls are given as the source filed them. The calls are words filed in the database; no cut-off is given here. Bridge positions count the residues as written; N and C are the ends. Square brackets hold non-standard residues; d marks the D form. Peptide text beside a SMILES is read from it. * marks the point of attachment. ξ: configuration not given here. Heptanoyl(6-Me) = CC(C)CCCCC(=O)*; dDab = NCC[C@@H](N)C(=O)O; Orn = NCCC[C@H](N)C(=O)O; Dab = NCC[C@H](N)C(=O)O; ξP = O=C(O)C1CCCN1

Legend:
Rattus norvegicus = species: Rattus norvegicus; experiment: Induction of wound healing in surgically-induced Albino Wistar rat wound model inoculated with methicillin-resistant Staphylococcus aureus assessed as reduction in scarring measured after 11 days by H&E staining based analysis; type: functional; conditions: time 11.0 day
Cell membrane [1] = experiment: Induction of cytoplasmic membrane depolarization in Klebsiella pneumoniae assessed as increase in fluorescence intensity at 5 uM by DiSC3-5 dye based fluorescence method; type: subcellular
Cell membrane [2] = experiment: Induction of outer membrane permeabilization in methicillin-resistant Staphylococcus aureus incubated for 5 to 20 mins by fluorescence based NPN uptake assay; type: subcellular; conditions: time 5-20 min
Klebsiella pneumoniae [3] = experiment: Induction of resistance development in Klebsiella pneumoniae assessed as fold increase in MIC at 0.5 times of MIC incubated with compound for 12 hrs followed by replacement with fresh medium for 12 hrs and measured after 20 repeated cycles; type: functional; conditions: time 240.0 hrs
Pseudomonas aeruginosa [4] = experiment: Induction of resistance development in Pseudomonas aeruginosa assessed as fold increase in MIC at 0.5 times of MIC incubated with compound for 12 hrs followed by replacement with fresh medium for 12 hrs and measured after 20 repeated cycles; type: functional, organism-based; conditions: time 240.0 hrs
Klebsiella pneumoniae [5] = experiment: Antibacterial activity against Klebsiella pneumoniae ATCC BAA-1705 assessed as inhibition of bacterial growth incubated for 24 hrs by CLSI protocol based microdilution method; type: functional
Escherichia coli [6] = experiment: Antibacterial activity against Escherichia coli ATCC CRM-11229 assessed as inhibition of bacterial growth incubated for 24 hrs by CLSI protocol based microdilution method; type: functional
Staphylococcus aureus [7] = experiment: Antibacterial activity against patient-derived methicillin-resistant Staphylococcus aureus assessed as inhibition of bacterial growth incubated for 24 hrs by CLSI protocol based microdilution method; type: functional
Escherichia coli [8] = experiment: Antibacterial activity against Escherichia coli ATCC CRM-11229 assessed as inhibition of bacterial growth at 25 to 100 uM incubated overnight by spotting assay; type: functional, organism-based; conditions: dose 25-100 µM
Staphylococcus aureus [9] = experiment: Antibacterial activity against patient-derived methicillin-resistant Staphylococcus aureus assessed as inhibition of bacterial growth at 25 to 100 uM incubated overnight by spotting assay; type: functional, organism-based; conditions: dose 25-100 µM
Pseudomonas aeruginosa [10] = experiment: Antibacterial activity against patient-derived Pseudomonas aeruginosa assessed as inhibition of bacterial growth incubated for 24 hrs by CLSI protocol based microdilution method; type: functional
Klebsiella pneumoniae [11] = experiment: Antibacterial activity against Klebsiella pneumoniae ATCC BAA-1705 assessed as inhibition of bacterial growth at 25 to 100 uM incubated overnight by spotting assay; type: functional, organism-based; conditions: dose 25-100 µM
Pseudomonas aeruginosa [12] = experiment: Antibacterial activity against patient-derived Pseudomonas aeruginosa assessed as inhibition of bacterial growth at 25 to 100 uM incubated overnight by spotting assay; type: functional, organism-based; conditions: dose 25-100 µM

Compound: C=CN1CCCC1=O.II
Activity (Rattus norvegicus): inactive

Activity (Cell membrane [1]): Active
Compound: CC(C)C[C@@H]1NC(=O)[C@H](CCCN)NC(=O)[C@H](C(C)C)NC(=O)[C@@H]2CCCN2C(=O)[C@@H](Cc2ccccc2)NC(=O)[C@H](CC(C)C)NC(=O)[C@H](CCCN)NC(=O)[C@H](C(C)C)NC(=O)C2CCCN2C(=O)[C@@H](Cc2ccccc2)NC1=O (stereo partly drawn) (cyclo(L[dF]PV[Orn]L[dF][ξP]V[Orn]))

Compound: CC(C)CCCCC(=O)N[C@@H](CCN)C(=O)N[C@H](C(=O)N[C@@H](CCN)C(=O)N[C@H]1CCNC(=O)[C@H]([C@@H](C)O)NC(=O)[C@H](CCN)NC(=O)[C@H](CCN)NC(=O)[C@H](CC(C)C)NC(=O)[C@@H](Cc2ccccc2)NC(=O)[C@@H](CCN)NC1=O)[C@@H](C)O ({Heptanoyl(6-Me)}-[Dab]T[Dab][Dab][dDab][dF]L[Dab][Dab]T; lactam 4-C)
Activity (Cell membrane [2]): Active

Compound: COLISTIN
fold change (FC) (Klebsiella pneumoniae [3]): 4 | fold change (FC) (Pseudomonas aeruginosa [4]): 2

Compound: H-LPIIKWVKKFFWRWR-OH
MIC (Klebsiella pneumoniae [5]): 16 µM | MIC (Escherichia coli [6]): 8 µM | MIC (Staphylococcus aureus [7]): 15 µM | Activity (Escherichia coli [8]): Active | Activity (Staphylococcus aureus [9]): Active | MIC (Pseudomonas aeruginosa [10]): 10 µM | Activity (Klebsiella pneumoniae [11]): Active | Activity (Pseudomonas aeruginosa [12]): Active
